Measurements: patent US20180042232A1, “Methods and Compositions for Reducing Anguina Nematode Infestation and Improving Grass Quality” (Bayer CropScience LP, priority 2015, published 2018)

Columns and labels:
Format in all cases: in vivo
[1] = test system: Poa annua turfgrass; assay: Turf quality evaluation of a treated Poa annua green, The Links at Spanish Bay; conditions: 179 DAA, 0-10 scale (10 = best), untreated 5.5
Experimental: FIG. 7 sets forth comparative turf quality evaluations of Poa annua turfgrass treated with fluopyram at defined concentrations and doses. In the legend provided, each letter (e.g., “A,” “B,” “C,” etc.) represents a two week interval (e.g., AC=4-week interval).
(§1) A Poa annua green is treated by spraying the active ingredient on foliage and waiting at least three hours before irrigating into the thatch/mat layer for upward movement into the stem region (just above the crown) where the nematode resides. One or more applications can be made in 2-8 weeks. The interval may be longer if control has not declined, or treatments are to be applied in different seasons (e.g., spring and fall).
(§2) In FIG. 7, turf quality of a Poa annua green is evaluated 179 DAA. The first column represents turf quality at 179 DAA in an untreated sample of turfgrass. The second column represents turf quality at 179 DAA in turfgrass treated with 250 g ai/ha fluopyram at 4-week intervals. The third column represents turf quality at 179 DAA in turfgrass treated with 500 g ai/ha fluopyram at 4-week intervals. The fourth column represents turf quality at 179 DAA in turfgrass treated with 286 g ai/ha azadirachtin applied bi-weekly to the soil. FIG. 7 corresponds to Table 8, below.

[2] = test system: Anguina pacificae nematodes; assay: Nematode count in soil of a treated Poa annua green, Pebble Beach; conditions: 87 DAA, untreated 212.5
Description: FIG. 1 sets forth comparative numerical representations of Anguina pacificae nematodes found in 100 cc untreated soil, 100 cc soil treated with azadirachtin, and 100 cc soil treated with fluopyram at defined concentrations and doses. In the legend provided, each letter (e.g., “A,” “B,” “C,” etc.) represents a two week interval (e.g., AC=4-week interval).
Example 1 describes effects of various treatments on nematode population on a Poa annua green at Pebble Beach.
(§3) Trials are kept free of any pests that can interfere or impact and nematode evaluations and yields.
as §1
as §2, with “1,” for “7, turf quality of”, “and counts of nematodes per 100 cc soil are taken 87 days after anthesis (DAA).” for “179 DAA.”, “nematode count” for “turf quality”, “87” for “179”, “1” for “7”, “1,” for “8,”

[3] = test system: Anguina pacificae nematode galls; assay: Nematode gall count of a treated Poa annua green, The Links at Spanish Bay; conditions: 171 DAA, untreated 22.8
Description: FIG. 6 sets forth comparative numerical representations of Anguina pacificae nematode galls found in 100 cc untreated soil, 100 cc soil treated with azadirachtin+cimectacarb, and 100 cc soil treated with fluopyram at defined concentrations and doses. In the legend provided, each letter (e.g., “A,” “B,” “C,” etc.) represents a two week interval (e.g., AC=4-week interval).
Example 3 describes effects of various treatments on nematode population on a Poa annua green at The Links at Spanish Bay.
as §3, §1
In FIG. 6, a Poa annua green is evaluated and counts of nematode galls per 100 cc soil are taken 171 days after anthesis (DAA). The first column represents nematode count at 171 DAA in an untreated sample of turfgrass. The second column represents nematode count at 171 DAA in turfgrass treated with 250 g ai/ha fluopyram at 4-week intervals. […]

[4] = test system: Poa annua turfgrass; assay: Crop Circle ACS-430 canopy sensor vegetation index (RVI, NDVI) of a treated Poa annua green, Pebble Beach; conditions: for NDVI (Normalized Difference Vegetation Index) / RVI (Ratio Vegetation Index): Pebble Beach, 96 DAA; for NDVI (Normalized Difference Vegetation Index): untreated 0.7064; for RVI (Ratio Vegetation Index): untreated 5.830
Description: FIG. 3 sets forth comparative RVI measurements of Poa annua turfgrass treated with fluopyram at defined concentrations and doses. In the legend provided, each letter (e.g., “A,” “B,” “C,” etc.) represents a two week interval (e.g., AC=4-week interval).
FIG. 4 sets forth comparative NDVI measurements of Poa annua turfgrass treated with fluopyram at defined concentrations and doses. In the legend provided, each letter (e.g., “A,” “B,” “C,” etc.) represents a two week interval (e.g., AC=4-week interval).
as §1
A Crop Circle ACS-430 active crop canopy sensor (Holland Scientific, Inc.) provided classic vegetation index data (RVI=Ratio Vegetation Indices; NDVI=Normalized difference vegetative index) from the turf canopy. Unlike passive radiometric light sensors, the Crop Circle ACS-430 is not limited by ambient lighting conditions and measurements were made by day due to its unique light source technology. Information produced by the sensor can be utilized to quantify the impact of nutrients, water, disease or other growing conditions on the turf plant. The ratio vegetation index (RVI) is formed by dividing the near infra-red irradiance by the red irradiance. Study plots were scanned at intervals to collect this quantitative data. The normalized difference vegetative index (NDVI) is calculated as follows: […]
where VIS and NIR stand for the spectral reflectance measurements acquired in the visible (red) and near-infrared regions, respectively.
as §2, with “3, RVI” for “7, turf quality”, “96” for “179”, “RVI” for “turf quality”, “3” for “7”, “3,” for “8,”
as §2, with “4, NDVI” for “7, turf quality”, “96” for “179”, “NDVI” for “turf quality”, “4” for “7”, “4,” for “8,”

[5] = test system: Poa annua turfgrass; assay: Turf quality evaluation of a treated Poa annua green, Pebble Beach; conditions: 96 DAA, 1-9 scale (9 = best, 6 = acceptable), untreated 4.8
Experimental: FIG. 2 sets forth comparative turf quality evaluations of Poa annua turfgrass treated with fluopyram at defined concentrations and doses. In the legend provided, each letter (e.g., “A,” “B,” “C,” etc.) represents a two week interval (e.g., AC=4-week interval).
as §1
as §2, with “2,” for “7,”, “96” for “179”, “2” for “7”, “2,” for “8,”

[6] = test system: Anguina pacificae nematode galls; assay: Nematode gall count of a treated Poa annua green, Pebble Beach
Description: FIG. 5 sets forth comparative numerical representations of Anguina pacificae nematodes galls found in 100 cc untreated soil, 100 cc soil treated with azadirachtin, and 100 cc soil treated with fluopyram at defined concentrations and doses. In the legend provided, each letter (e.g., “A,” “B,” “C,” etc.) represents a two week interval (e.g., AC=4-week interval).
Example 2 describes effects of various treatments on nematode population on a Poa annua green at Pebble Beach.
as §3, §1
In FIG. 5, a Poa annua green is evaluated and counts of nematode galls per 100 cc soil are taken 87 and 139 days after anthesis (DAA). The first and fifth columns represent nematode gall count at 87 and 139 DAA, respectively, in an untreated sample of turfgrass. The second and sixth columns represent nematode gall count at 87 and 139 DAA, respectively, in turfgrass treated with 250 g ai/ha fluopyram at 4-week intervals. The third and seventh columns represent nematode gall count at 87 and 139 DAA, respectively, in turfgrass treated with 500 g ai/ha fluopyram at 4-week intervals. The fourth and eighth columns represent nematode gall count at 87 and 139 DAA, respectively, in turfgrass treated with 286 g ai/ha azadirachtin applied bi-weekly to the soil. FIG. 5 corresponds to Table 5 (87 DAA) and Table 6 (139 DAA), below.

[7] = 250 g ai/ha at 4-week intervals
[8] = 500 g ai/ha at 4-week intervals
[9] = 286 g ai/ha applied bi-weekly to the soil

SMILES: O=C(NCCc1ncc(C(F)(F)F)cc1Cl)c1ccccc1C(F)(F)F [fluopyram, N-{2-[3-chloro-5-(trifluoromethyl)-2-pyridinyl]ethyl}-2-(trifluoromethyl) benzamide]
- Turf Quality [1, 7]: 6.0
- Turf Quality [1, 8]: 8.5
- Nematodes/100 cc soil [2, 7]: 17.5 nematodes/100 cc soil
- Nematodes/100 cc soil [2, 8]: 17.5 nematodes/100 cc soil
- Nematode galls/100 cc soil [3, 7]: 4.3 galls/100 cc soil
- Nematode galls/100 cc soil [3, 8]: 1.8 galls/100 cc soil
- NDVI (Normalized Difference Vegetation Index) [4, 7]: 0.7634
- RVI (Ratio Vegetation Index) [4, 7]: 7.475
- NDVI (Normalized Difference Vegetation Index) [4, 8]: 0.7908
- RVI (Ratio Vegetation Index) [4, 8]: 8.598
- Vegetative index (RVI and NDVI) compared to the untreated control ([4]; averaged over the course of the study, Poa annua turfgrass): positively enhanced vegetative index
- Turf Quality [5, 7]: 7.4
- Turf Quality [5, 8]: 8.1
- Nematode galls/100 cc soil ([6]; 250 g ai/ha at 4-week intervals, 87 DAA, untreated 31): 6 galls/100 cc soil
- Nematode galls/100 cc soil ([6]; 250 g ai/ha at 4-week intervals, 139 DAA, untreated 19): 2 galls/100 cc soil
- Nematode galls/100 cc soil ([6]; 500 g ai/ha at 4-week intervals, 87 DAA, untreated 31): 3 galls/100 cc soil
- Nematode galls/100 cc soil ([6]; 500 g ai/ha at 4-week intervals, 139 DAA, untreated 19): 0.5 galls/100 cc soil

SMILES: C/C=C(\C)C(=O)O[C@H]1C[C@@H](OC(C)=O)[C@@]2(C(=O)OC)CO[C@H]3[C@@H](O)[C@@](C)([C@]45O[C@@]4(C)[C@H]4C[C@@H]5O[C@@H]5OC=C[C@@]54O)[C@H]4[C@]1(CO[C@]4(O)C(=O)OC)[C@@H]32 [azadirachtin]
- Nematodes/100 cc soil [2, 9]: 270 nematodes/100 cc soil
- NDVI (Normalized Difference Vegetation Index) [4, 9]: 0.6865
- RVI (Ratio Vegetation Index) [4, 9]: 5.425
- Turf Quality [5, 9]: 4.8
- Nematode galls/100 cc soil ([6]; 286 g ai/ha applied bi-weekly to the soil, 87 DAA, untreated 31): 34 galls/100 cc soil
- Nematode galls/100 cc soil ([6]; 286 g ai/ha applied bi-weekly to the soil, 139 DAA, untreated 19): 16 galls/100 cc soil
